The text below walks through data of patent publication US20130116274A1 (RUTGERS, THE STATE UNIVERSITY OF NEW JERSEY, priority 2011, published 2013).

The structures appear in SMILES notation.

The test system of assay [1] is C8161 human melanoma xenografts. Put plainly: C8161 xenografts in immunodeficient nude mice. Format: in vivo. As to conditions: riluzole 10 mg/kg. The procedure: (§1) The Institutional Review Board approved all animal studies for the Animal Care and Facilities Committee of Rutgers University. Nude mice were purchased from Taconic (Hudson, N.Y.). Cells were injected into 2 dorsal sites of each mouse at 10^6 cells per site. Tumor size was measured twice a week with a Vernier caliper and calculated as described. Once tumor volumes reached 6-10 mm^3, mice were divided into no treatment and treatment groups. […] The experiments were terminated when the xenografts in the no treatment group reached the maximum permitted size.
C8161 human melanoma cells were inoculated into the dorsal flanks of immunodeficient nude mice. 10^6 cells were inoculated into each dorsal flank of 5-6 week-old mice. When the tumors reached tumor volumes of ˜10 mm^3, the mice were randomly divided in 5 groups with similar tumor volumes. The mice were then treated by oral gavage daily, except for […] treatment, which was administered three times a week. […] Tumor volumes were determined once a week with a vernier caliper and the experiment was terminated when tumor burden in the control animals reached maximum permitted levels.

In assay [2] the test system is C8161 melanoma cells. Put plainly: MTT cell viability assay, C8161. The conditions noted are these: for cell proliferation and viability (number of viable cells): single agent, seven days, FIG. 1A. On the technique in general: Tetrazolium assays rely on reduction of a dye to a coloured formazan, in cell work by metabolically active cells.
Procedure: (§6) MTT cell viability assays were performed as known in the art. C8161, UACC903, 1205Lu, SKMEL 187 and A2058 melanoma cell lines were used in the MTT assays. […] Viable cells were measured every day for 4 or 7 days. Absorbance was determined using a Tecan plate reader (Infinite 200 Tecan USA, Durham, N.C.) at 570 nm everyday for up to 7 days.
Assay [3] deals with C8161 human melanoma xenografts. The experiment in a line: Immunohistochemistry on excised C8161 xenografts (riluzole/MK2206 study). The conditions noted are these: riluzole 10 mg/kg; for cleaved Caspase-3-positive (apoptotic) cells: MK2206 30 mg/kg, or riluzole 5 mg/kg + MK2206 15 mg/kg, combination p<0.001 vs single agent. The format is in vivo, mice. An excerpt:
(§2) Tissue Analytical Services at the Cancer Institute of New Jersey performed immunohistochemical staining on excised tumor xenografts to detect changes in the number of apoptotic and proliferating cells (activated Caspase 3 and Ki-67, respectively). The number of stained cells was quantified with a Digital Aperio ScanScopeGL system and ImageScope software (v 10.1.3.2028) (Aperio Technologies Inc., Vista, Calif.) according to the manufacturer's protocol.
Excised tumor samples were subjected to immunohistochemistry evaluation with the apoptosis marker, cleaved Caspase-3, and the proliferation index marker, Ki-67.

For assay [4], the system named is SKMEL 28 human melanoma cells. Put plainly: MTT cell viability assay, SKMEL 28. The format is cell-based. The conditions noted are these: single agent 10 μM, FIG. 5A.
Procedure: as §6
In assay [5] the test system is UACC903 melanoma cells. Put plainly: MTT cell viability assay, UACC903. Format: cell-based, human. As to conditions: for cell proliferation and viability (number of viable cells): single agent, seven days.
Procedure: as §6
Assay [6] concerns AKT phosphorylation. Put plainly: Western immunoblot, phosphorylated AKT. The conditions noted are these: three human melanoma cell lines (C8161, UACC903, SKMEL 28). The format is cell-based. The procedure: (§3) Protein lysates were prepared as commonly known in the art. Briefly, media was removed and cells were washed once with ice-cold phosphate buffered saline (PBS). After removal of PBS, the extraction buffer was added directly to the plates and cells were collected with a cell scraper. Cells were incubated on ice for 20 minutes. Cell debris was removed by centrifugation at 25,000×g at 4° C. for 20 minutes and supernatant taken for Western immunoblot analysis. Western Blotting was carried out with anti-PARP, anti-cleaved PARP, anti-phospho ERK, anti-total ERK, anti-a-tubulin antibodies, anti AKT and anti-Phospho AKT-S473.

For assay [7], the system named is ERK phosphorylation. The experiment in a line: Western immunoblot, ERK phosphorylation. As to conditions: C8161, UACC903 and 1205Lu cells; harvested xenografts showed similar results. The format is cell-based, human. As to the method:
as §3

In assay [8] the test system is UACC903 human melanoma xenografts. The experiment in a line: UACC903 xenografts in immunodeficient nude mice. Format: in vivo. As to the method: as §1
(§4) Briefly, UACC903 cells were injected into the dorsal flanks of nude mice. Tumors were allowed to grow to approximately 6-10 mm^3 and mice were divided into groups to obtain relatively constant tumor volumes between each group (12 mice per group).

The test system of assay [9] is Mcl-1. The experiment in a line: Western immunoblot, Mcl-1 levels. Format: cell-based, human. The conditions noted are these: C8161, UACC903 and 1205Lu cells.
Assay [10] concerns SKMEL 187 melanoma cells. Put plainly: MTT cell viability assay, SKMEL 187. The format is cell-based, human. As to conditions: riluzole 25 μM or 50 μM vs no treatment or vehicle (DMSO).
Procedure: as §6
The subject of assay [11] is 1205Lu human melanoma cell line. The experiment in a line: Three dimensional anchorage independent colony assay, 1205Lu. Format: cell-based. As to conditions: riluzole 10 μM, sorafenib 5 μM or both; 14 days; FIG. 2. The procedure: (§5) The cells were suspended in 0.35% agar in RPMI supplemented with 10% FBS and plated on a layer of 0.75% agar in the same medium in 12-well culture plates (1−1.5×10^4 cells/well). […] Every other day, the vehicle, or drug(s) was again added with 250 μl of complete medium. After 14 days, the colonies were stained with iodonitrotetrazolium chloride (Sigma) and photographed. The numbers of colonies were counted using Image J software. Quantitation was performed by comparing the total number of colonies from three representative photomicrographs from each experiment. The histograms represent the average of three independent experiments.

Assay [12] concerns A2058 melanoma cells. Put plainly: MTT cell viability assay, A2058. Format: cell-based, human. The conditions noted are these: riluzole 25 μM or 50 μM vs no treatment or vehicle (DMSO).
Procedure: as §6
For assay [13], the system named is cleaved form of PARP. Put plainly: Western analysis, cleaved PARP. Format: cell-based, human. As to conditions: riluzole 10 μM; UACC903, 1205Lu, A2058 cells; 24 and 48 hours. As to the method: as §3, §4
Assay [14] deals with advanced melanoma. The conditions noted are these: cited from earlier work.
Assay [15] has as its system SKMEL2 human melanoma cell line. The experiment in a line: Three dimensional anchorage independent colony assay, SKMEL2. The format is cell-based. The conditions noted are these: riluzole 10 μM, sorafenib 5 μM or both; 14 days; vs control group; FIG. 2. The procedure: as §5
The test system of assay [16] is C8161 human melanoma cell line. Put plainly: Three dimensional anchorage independent colony assay, C8161. The format is cell-based. The conditions noted are these: riluzole 10 μM, sorafenib 5 μM or both; 14 days; FIG. 2. The procedure:
as §5

In assay [17] the test system is A2058 melanoma cells. The experiment in a line: Cell cycle analysis (propidium iodide flow cytometry), A2058. Format: cell-based, human. As to conditions: riluzole 10 μM, 24 hours post-treatment.
Procedure: as §6
In assay [18] the test system is melanoma. As to conditions: Phase II; cited from earlier work.
The test system of assay [19] is 1205Lu melanoma cells. Put plainly: MTT cell viability assay, 1205Lu. The format is cell-based, human. As to conditions: for cell proliferation and viability (number of viable cells): single agent, seven days, FIG. 1C.
Procedure: as §6
Assay [20] relates to UACC903 melanoma cells. Put plainly: Cell cycle analysis (propidium iodide flow cytometry), UACC903. The format is cell-based, human. As to conditions: riluzole 10 μM, 24 hours post-treatment.
Procedure: as §6
In assay [21] the test system is excised tumor xenografts. Put plainly: Immunohistochemistry on excised xenografts (riluzole/sorafenib study). As to conditions: for number of Ki-67 positive cells: Ki-67 immunohistochemistry; for number of positive Caspase 3 cells vs controls: cleaved Caspase 3 immunohistochemistry. The format is in vivo, mice.
Excerpt: as §2
Additionally, immunohistochemical analyses were performed on excised xenografts using antibodies against the cleaved form of Caspase 3 to detect apoptotic cell death, and Ki-67 to detect changes in cell proliferation.

The subject of assay [22] is UACC903 human melanoma cell line. Put plainly: Three dimensional anchorage independent colony assay, UACC903. The format is cell-based. The conditions noted are these: riluzole 10 μM, sorafenib 5 μM or both; 14 days; FIG. 2. As to the method:
as §5

The test system of assay [23] is 1205Lu melanoma cells. The experiment in a line: Cell cycle analysis (propidium iodide flow cytometry), 1205Lu. Format: cell-based, human. As to conditions: riluzole 10 μM, 24 hours post-treatment. A general note: Flow cytometry measures light scatter and fluorescence of single cells or particles in a stream.
Procedure: as §6
The test system of assay [24] is 1205Lu human melanoma xenografts. Put plainly: 1205Lu xenografts in immunodeficient nude mice. The format is in vivo. As to conditions: riluzole 10 mg/kg, sorafenib 24 mg/kg, or riluzole 5 mg/kg + sorafenib 12 mg/kg daily oral gavage; FIG. 3C. The procedure:
as §1

Setting [25] is: riluzole 25 μM or 50 μM vs no treatment or vehicle (DMSO).

Consider `NC1(c2ccc(-c3nc4ccn5c(=O)[nH]nc5c4cc3-c3ccccc3)cc2)CCC1` [MK2206], for which the “tumor volume / xenograft growth” value in assay [1] (MK2206 30 mg/kg, or riluzole 5 mg/kg + MK2206 15 mg/kg, oral gavage, FIG. 6, combination p<0.005 vs NT or vehicle) is on record as “suppress the growth of the melanoma xenografts”. For the same compound, the cell proliferation result in assay [2] (single agent 10 μM, FIG. 5A) is “suppress cell proliferation”; in [4], “suppress cell proliferation”; in assay [5] (single agent 10 μM, FIG. 5A), “suppress cell proliferation”. For the same compound, the “number of Ki-67 positive cells” value in assay [3] (MK2206 30 mg/kg, or combination at half the dose of each (p<0.001)) is given as “decrease in the number of Ki-67 positive cells”. In addition, the “cleaved Caspase-3-positive (apoptotic) cells” value in [3] is listed as “significant increase in apoptotic cells”. Moreover, in [6], the AKT phosphorylation entry is on record as “suppress AKT phosphorylation”.
By IC50 is commonly meant the concentration that gives 50% inhibition. Read a low IC50 as inhibition by little substance. For `CCCS(=O)(=O)Nc1ccc(F)c(C(=O)c2c[nH]c3ncc(Cl)cc23)c1F` [PLX4720], in assay [2] (PLX4720 10 uM), the “inhibition in cell proliferation” value is “only slight inhibition in cell proliferation”. In addition, in [7], the ERK phosphorylation result is on record as “only found to suppress ERK activity in the B-RAF^V600E cell line UACC903”. The tumor progression entry in [8] (riluzole 10 mg/kg, PLX4720 20 mg/kg, or riluzole 5 mg/kg + PLX4720 10 mg/kg, FIG. 3D) is “not as potent as riluzole”. Further, in [9], the Mcl-1 levels result is “does not down regulate the levels of Mcl-1”. In addition, the midpoint of inhibition in assay [5] (Homo sapiens, UACC-903, UACC903 cells, MTT, FIG. 1B), the IC50, lay at 100 nM.
For `Nc1nc2ccc(OC(F)(F)F)cc2s1` [riluzole], the “number of viable cells” value in assay [10], in assay [2] (setting [25]), in assay [12], in assay [19] (setting [25]) and in assay [5] (setting [25]) was “significantly decreased the number of viable cells” in each case. Besides, the “cell proliferation and viability (number of viable cells)” value in [2] was “greatest reduction in the number of viable cells”; in assay [19], “not as sensitive to riluzole”; in assay [5] (FIG. 1B) it was “not as sensitive to riluzole”. For the same compound, in assay [11], the “reduction in colony formation” value stood at 30%. Further, in assay [13], the “cleaved form of PARP” value is recorded as “increase in the cleaved form of PARP”. The “patients showing measurable clinical responses” value in assay [14] (Phase 0, patients with advanced melanoma given riluzole) was 34%. Moreover, the “decrease in tumor size” value in assay [14] (Phase 0, some tumors) is “over 90%”. Further, the “decrease in colony formation” value in assay [15] is on record as 18%; in assay [16], 40%. Also, the ERK phosphorylation entry in assay [7] is recorded as “decrease in levels of ERK phosphorylation in a cell line-dependent manner”. For the same compound, the “tumor size vs controls” value in [8] (single agent riluzole daily by oral gavage, day 18, 12 mice per group) is reported as “substantial difference between the tumor sizes”. The “cells accumulating in the G2/M phase” value in assay [17], in assay [20] and in assay [23] was “about half” in each case. For the same compound, in assay [18], the RECIST criteria responses entry is on record as “no RECIST criteria responses”. Moreover, the “patients exhibiting stable disease” value in assay [18] was 42%. In [3], the “cleaved Caspase-3-positive (apoptotic) cells” value is on record as “significant increase in apoptotic cells”. In assay [21], the “number of Ki-67 positive cells” value is reported as “reduced”. Also, the “number of positive Caspase 3 cells vs controls” value in [21] is reported as “substantial increase in the number of positive Caspase 3 cells”. In assay [22], the “reduction in the number of colonies” value was “very little inhibitory activity”. Further, the AKT phosphorylation entry in [6] is listed as “suppress AKT phosphorylation”.
As to `CNC(=O)c1cc(Oc2ccc(NC(=O)Nc3ccc(Cl)c(C(F)(F)F)c3)cc2)ccn1` [sorafenib], the tumor volume result in assay [1] (sorafenib 24 mg/kg, or riluzole 5 mg/kg + sorafenib 12 mg/kg daily oral gavage, FIG. 3A, p<0.001 for riluzole and combination vs NT or Veh) is listed as “did not yield a significant decrease in tumor size”; in assay [8] (riluzole 10 mg/kg, sorafenib 24 mg/kg, or riluzole 5 mg/kg + sorafenib 12 mg/kg daily oral gavage, FIG. 3B, p<0.01 single agents day 18, p<0.001 combination) it was “statistically relevant responses”. In addition, the “cell proliferation and viability (number of viable cells)” value in [2] was “not very effective in suppressing C8161 cell growth”; in assay [19], “substantial decrease in the number of viable cells”; in [5] (FIG. 1B), “substantial decrease in the number of viable cells”. Moreover, the “reduction in colony formation” value in assay [11] is on record as 30%. For the same compound, the “decrease in colony formation” value in [15] is on record as “more efficacious at decreasing colony formation”; in assay [16], “little effect”. The ERK phosphorylation entry in [7] was “more highly suppress ERK phosphorylation in UACC903 and 1205Lu cells than in C8161 cells”. Further, the “tumor volume response compared to UACC903 xenografts” value in assay [24] was “more sensitive”. Further, the Mcl-1 levels entry in assay [9] is “reduction in Mcl-1 levels was detected in sorafenib-treated UACC903 and 1205 LU cells”. The “number of Ki-67 positive cells” value in assay [21] is given as “reduced”. In addition, the “number of positive Caspase 3 cells vs controls” value in [21] is recorded as “substantial increase in the number of positive Caspase 3 cells”. Also, in [22], the “reduction in the number of colonies” value is reported as 45%.
